The results in this text go back to US20100310536A1, “METHOD FOR EXPANDING HEMATOPOIETIC STEM CELLS USING HETEROCYCLIC COMPOUND” (Nissan Chemical Industries Limited, priority 2007, published 2010).

A value given as a limit tells only on which side of the number the result lay.

The test has as its system human cord blood-derived CD34+ cells. In words: Expansion of CD34+ cells from human cord blood-derived CD34+ cells (7-day liquid culture with SCF, flow cytometry count). Particulars: 168 h, number of CD34+ cells relative to absence of compound, 100 ng/mL SCF, 7 days, 37° C., read-out: Expansion efficiency; for fold induction at 1 µg/mL: 1 μg/mL compound; for fold induction at 0.3 µg/mL: 0.3 μg/mL compound. The format is cell-based. On the procedure: Commercially available human cord blood-derived CD34^+ cells (Cambrex Bio Science Walkersville) were plated on a 12-well plate (Corning) (from 5000 to 10000 cells/1 mL/well). As the culture medium, StemSpan SFEM (Stemcell Technologies) containing 100 ng/mL SCF (R&D Systems) was used, and Compounds Nos. 1 to 11 dissolved in dimethyl sulfoxide were added in an amount of 0.1% (v/v) to a final concentration of 0.3 or 1 μg/mL.
After the cells were incubated in liquid culture at 37° C. for 7 days in a CO2 incubator (in an atmosphere containing 5 vol % CO2), the total number of cells was counted by trypan blue assay (Invitrogen) or Flow-Count™ fluorosphere assay (Beckman Coulter). The number of CD34^+ cells was calculated as follows. After the incubation, the cells in the liquid culture was stained with a CD34 antibody (PE, Becton, Dickinson and Company). The stained cells were analyzed with a flow cytometer (Beckman Coulter) to determined the proportion of CD34^+ cells, which was multiplied by the total number of cells to calculate the number of CD34^+ cells.
The expansion efficiencies in the presence of 0.3 μg/mL or 1 μg/mL of compounds based on the number of CD34^+ cells in the absence of them are shown in Table 1 on a scale of A for expansion efficiencies of 3 or greater, B for expansion efficiencies of at least 2 and less than 3, and C for expansion efficiencies of at least 1.4 and less than 2.

`C/C(=N\NC(=O)c1ccc(C(=O)COc2cc(C)nn2C)s1)c1csc(-c2ccc(Cl)c(Cl)c2)c1O` [compound 11]: the fold induction at 1 µg/mL fell in the range of 2 to 3.
As for `C/C(=N\NC(=O)c1ccc(C(=O)Cn2ccc(=O)cc2)s1)c1csc(-c2ccc(Cl)c(Cl)c2)c1O` [compound 7], the fold induction at 0.3 µg/mL was in the range of 1.4 to 2.
In the case of `C/C(=N\NC(=O)c1ccc(C(=O)NN(C)C)s1)c1csc(-c2ccc(Cl)c(Cl)c2)c1O` [compound 2], the fold induction at 1 µg/mL was at least 3.
Same read-out and setting: in the case of `CC(=O)NC1CCN(C(=O)c2ccc(C(=O)N/N=C(\C)c3csc(-c4ccc(Cl)c(Cl)c4)c3O)s2)C1` (centres unmarked) [compound 1] it was at least 3.
As for `C/C(=N\NC(=O)c1ccc(C(=O)N2CCS(=O)(=O)CC2)s1)c1csc(-c2ccc(Cl)c(Cl)c2)c1O` [compound 9], the fold induction at 0.3 µg/mL fell in the range of 1.4 to 2.
The same measure, in the same setting: in the case of `C/C(=N\NC(=O)c1ccc(C(=O)N(N)Cc2ccncc2)s1)c1csc(-c2ccc(Cl)c(Cl)c2)c1O` [compound 6] it was 1.4 to 2.
`C/C(=N\NC(=O)c1ccc(C(=O)N2CC(O)C(O)C2)s1)c1csc(-c2ccc(Cl)c(Cl)c2)c1O` (centres unmarked) [compound 4]: the fold induction at 1 µg/mL is at least 3.
With `C/C(=N\NC(=O)c1ccc(C(=O)NNc2ccccn2)s1)c1csc(-c2ccc(Cl)c(Cl)c2)c1O` [compound 5], the fold induction at 0.3 µg/mL lay in the range of 1.4 to 2.
Take `C/C(=N\NC(=O)c1ccc(C(=O)CSc2ccncc2)s1)c1csc(-c2ccc(Cl)c(Cl)c2)c1O` [compound 8]: the fold induction at 0.3 µg/mL is 2 to 3.
Consider `C/C(=N\NC(=O)c1ccc(C(=O)CSc2cc[n+]([O-])cc2)s1)c1csc(-c2ccc(Cl)c(Cl)c2)c1O` [compound 10], for which the fold induction at 1 µg/mL is at least 3.
For `C/C(=N\NC(=S)Nc1cccc(C(=O)NCCC(N)=O)c1)c1csc(-c2ccc(Cl)c(Cl)c2)c1O` [compound 3], the fold induction at 1 µg/mL was at least 3.
